According to patent US8460858B2, “Near-infrared-ray absorbing material containing cyanine compound, and cyanine compound” (Adeka Corporation, priority 2008, dated 2013):
Where a name gives a salt, the structure may show the parent alone.

How the values were obtained:
[1] = Solubility measurement in methyl ethyl ketone (MEK); format: physicochemical; conditions: concentration when the solute completely dissolved
Experimental: The solubility measurement was conducted as follows: the compound to be tested was weighed; methyl ethyl ketone (MEK) was slowly added thereto; when the solute completely dissolved, the solution was weighed; and the concentration of the test compound in the solution was determined by calculation.

[2] = Decomposition point measurement (TG/DTA); format: physicochemical; conditions: temperature at which the mass started to decrease, differential thermal analysis, temperature-rise rate 10° C./minute
Experimental: The UV-Visible absorption spectra measurement was conducted by preparing a chloroform solution of each compound to be tested, and employing a UV-Vis-NIR spectrophotometer (“V-570”; product from JASCO Corporation). The decomposition point measurement was conducted using a thermogravimetry differential thermal analyzer (“TG/DTA 6200”; product from Seiko Instruments Inc.), to find the temperature at which the mass started to decrease in differential thermal analysis at a temperature-rise rate of 10° C./minute.

Row | Solubility (MEK) [1] | Decomposition Point [2] | Structure (SMILES)
1 | 1.46 wt % | 280.7 °C | CN1/C(=C/C=C/C=C/C=C/C=C/C2=[N+](C)c3ccc4ccccc4c3C23CCCCC3)C2(CCCCC2)c2c1ccc1ccccc21 [Example 1-11, bis(trifluoromethane sulfone)imide salt of Compound No. 64]
2 | 0.98 wt % | 255.8 °C | CN1/C(=C/C=C/C=C/C=C/C=C/C2=[N+](C)c3ccc4ccccc4c3C2(C)Cc2ccccc2)C(C)(Cc2ccccc2)c2c1ccc1ccccc21 (stereo not shown) [Example 1-4, Bis(Trifluoromethane Sulfone)Imide Salt of Compound No. 3]
3 | 3.71 wt % | 266.5 °C | CN1/C(=C/C=C/C=C/C=C/C=C/C2=[N+](C)c3ccc4ccccc4c3C2(Cc2ccccc2)Cc2ccccc2)C(Cc2ccccc2)(Cc2ccccc2)c2c1ccc1ccccc21 [Example 1-7, Bis(Trifluoromethane Sulfone)Imide Salt of Compound No. 4]
4 | 1.62 wt % | 192.6 °C | CN1/C(=C/C=C/C=C/C=C/C=C/C2=[N+](C)c3ccc4ccccc4c3C2(Cc2ccccc2)Cc2ccccc2)C(Cc2ccccc2)(Cc2ccccc2)c2c1ccc1ccccc21 [Example 1-6, Tetrafluoroborate Salt of Compound No. 4]
5 | 1.36 wt % | 193.8 °C | CCCN1/C(=C/C=C/C=C/C=C/C=C/C2=[N+](CCC)c3ccc4ccccc4c3C2(Cc2ccccc2)Cc2ccccc2)C(Cc2ccccc2)(Cc2ccccc2)c2c1ccc1ccccc21 [Example 1-9, Tetrafluoroborate Salt of Compound No. 6]

Second part, the compound before the results:

Row | Structure (SMILES) | Solubility (MEK) [1] | Decomposition Point [2]
6 | CN1/C(=C/C=C/C=C/C=C/C=C/C2=[N+](C)c3ccccc3C2(C)C)C(C)(C)c2ccccc21 [Example 1-10, bis(trifluoromethane sulfone)imide salt of Compound No. 61] | 0.73 wt % | 238.4 °C
7 | CN1/C(=C/C=C/C=C/C=C/C=C/C2=[N+](C)c3ccccc3C2(Cc2ccccc2)Cc2ccccc2)C(Cc2ccccc2)(Cc2ccccc2)c2ccccc21 [Example 1-2, Bis(Trifluoromethane Sulfone)Imide Salt of Compound No. 2] | 2.34 wt % | 248.6 °C
8 | CN1/C(=C/C=C/C=C/C=C/C=C/C2=[N+](C)c3c(c4ccccc4c4ccccc34)C2(C)C)C(C)(C)c2c1c1ccccc1c1ccccc21 [Example 1-12, bis(trifluoromethane sulfone)imide salt of Compound No. 105] | 1.13 wt % | 291.5 °C
9 | O=S(=O)(c1ccc2c(c1)[S][Cu-]1([S]2)[S]c2ccc(S(=O)(=O)N3CCOCC3)cc2[S]1)N1CCOCC1 [Example 1-5, Quencher (1-1) Salt of Compound No. 3] | 0.39 wt % | 249.1 °C
10 | O=S(=O)(c1ccc2c(c1)[S][Cu-]1([S]2)[S]c2ccc(S(=O)(=O)N3CCOCC3)cc2[S]1)N1CCOCC1 [1-3, reference compound] | 0.20 wt % | 198.7 °C
11 | CN1/C(=C/C=C/C=C/C=C/C=C/C2=[N+](C)c3ccc4ccccc4c3C2(C)Cc2ccccc2)C(C)(Cc2ccccc2)c2c1ccc1ccccc21 (stereo not shown) [Example 1-3, Tetrafluoroborate Salt of Compound No. 3] | 0.97 wt % | 180.5 °C
12 | CN1/C(=C/C=C/C=C/C=C/C=C/C2=[N+](C)c3ccccc3C2(Cc2ccccc2)Cc2ccccc2)C(Cc2ccccc2)(Cc2ccccc2)c2ccccc21 [Example 1-1, Tetrafluoroborate Salt of Compound No. 2] | 0.16 wt % | 238.3 °C
13 | CN1/C(=C/C=C/C=C/C=C/C=C/C2=[N+](C)c3c(c4ccccc4c4ccccc34)C2(C)C)C(C)(C)c2c1c1ccccc1c1ccccc21 [1-4, reference compound] | 0.28 wt % | 261.3 °C
14 | O=S(=O)(c1ccc2c(c1)[S][Cu-]1([S]2)[S]c2ccc(S(=O)(=O)N3CCOCC3)cc2[S]1)N1CCOCC1 [Example 1-8, Quencher (1-1) Salt of Compound No. 4] | 3.69 wt % | 258.8 °C
